#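 Cells were grown in 96-well plates and exposed to each compound for 48 hours at five concentrations; endpoints were interpolated linearly between bracketing concentrations, or set to the highest concentration if not reached. GI50: concentration for 50% inhibition of growth. TGI: total growth inhibition.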
# How the values were obtained:
# Assay in all cases: inhibition of tumour cell growth, NCI panel, 48 h
# MALME-3M melanoma = tested on: MALME-3M melanoma
# MDA-MB-468 breast = tested on: MDA-MB-468 breast
# HT29 colon = tested on: HT29 colon
# HCT-15 colon = tested on: HCT-15 colon
# NCI/ADR-RES ovarian = tested on: NCI/ADR-RES ovarian
# SK-MEL-2 melanoma = tested on: SK-MEL-2 melanoma
# MOLT-4 leukemia = tested on: MOLT-4 leukemia
# OVCAR-5 ovarian = tested on: OVCAR-5 ovarian
# SR leukemia = tested on: SR leukemia
# ACHN renal = tested on: ACHN renal
# HOP-62 NSCLC = tested on: HOP-62 NSCLC
# COLO 205 colon = tested on: COLO 205 colon
# 786-0 renal = tested on: 786-0 renal
# EKVX NSCLC = tested on: EKVX NSCLC
# U251 CNS = tested on: U251 CNS
# MDA-MB-435 = tested on: MDA-MB-435
# CAKI-1 renal = tested on: CAKI-1 renal
# UACC-257 melanoma = tested on: UACC-257 melanoma
# UACC-62 melanoma = tested on: UACC-62 melanoma
# SNB-19 CNS = tested on: SNB-19 CNS
# RXF 393 renal = tested on: RXF 393 renal
# LOX IMVI melanoma = tested on: LOX IMVI melanoma
# PC-3 prostate = tested on: PC-3 prostate
# A549 NSCLC = tested on: A549 NSCLC
# HCT-116 colon = tested on: HCT-116 colon
# BT-549 breast = tested on: BT-549 breast
# KM12 colon = tested on: KM12 colon
# A498 renal = tested on: A498 renal
# HOP-92 NSCLC = tested on: HOP-92 NSCLC
# DU-145 prostate = tested on: DU-145 prostate
# TK-10 renal = tested on: TK-10 renal
# SNB-75 CNS = tested on: SNB-75 CNS
# HS 578T breast = tested on: HS 578T breast
# NCI-H23 lung = tested on: NCI-H23 lung
# MDA-MB-231 breast = tested on: MDA-MB-231 breast
# SW-620 colon = tested on: SW-620 colon
# MCF7 breast = tested on: MCF7 breast
# SK-MEL-28 melanoma = tested on: SK-MEL-28 melanoma
# T-47D breast = tested on: T-47D breast
# CCRF-CEM leukemia = tested on: CCRF-CEM leukemia
# UO-31 renal = tested on: UO-31 renal
# SK-MEL-5 melanoma = tested on: SK-MEL-5 melanoma
# OVCAR-3 ovarian = tested on: OVCAR-3 ovarian
# NCI-H460 lung = tested on: NCI-H460 lung
# NCI-H522 lung = tested on: NCI-H522 lung
# SF-295 CNS = tested on: SF-295 CNS
# NCI-H226 lung = tested on: NCI-H226 lung
# SN12C renal = tested on: SN12C renal
# OVCAR-8 ovarian = tested on: OVCAR-8 ovarian
# SF-539 CNS = tested on: SF-539 CNS
# SK-OV-3 ovarian = tested on: SK-OV-3 ovarian
# OVCAR-4 ovarian = tested on: OVCAR-4 ovarian
# HCC-2998 colon = tested on: HCC-2998 colon
# HL-60(TB) leukemia = tested on: HL-60(TB) leukemia
# IGROV1 ovarian = tested on: IGROV1 ovarian
# SF-268 CNS = tested on: SF-268 CNS
# M14 melanoma = tested on: M14 melanoma
# RPMI-8226 leukemia = tested on: RPMI-8226 leukemia
# K-562 leukemia = tested on: K-562 leukemia
smiles,measurement,setting,value
N#Cc1c(NC(=O)c2ccc(C(F)(F)F)c(Cl)c2)sc2c1CCC(=O)C2,GI50,MALME-3M melanoma,1260 nM
same,TGI,MALME-3M melanoma,3150 nM
same,GI50,MDA-MB-468 breast,416 nM
same,TGI,MDA-MB-468 breast,1490 nM
same,GI50,HT29 colon,943 nM
same,TGI,HT29 colon,3530 nM
same,GI50,HCT-15 colon,963 nM
same,TGI,HCT-15 colon,2860 nM
same,GI50,NCI/ADR-RES ovarian,1600 nM
same,TGI,NCI/ADR-RES ovarian,4190 nM
same,GI50,SK-MEL-2 melanoma,1940 nM
same,TGI,SK-MEL-2 melanoma,4380 nM
same,GI50,MOLT-4 leukemia,568 nM
same,TGI,MOLT-4 leukemia,6260 nM
same,GI50,OVCAR-5 ovarian,1830 nM
same,TGI,OVCAR-5 ovarian,3870 nM
same,GI50,SR leukemia,399 nM
same,TGI,SR leukemia,10300 nM
same,GI50,ACHN renal,692 nM
same,TGI,ACHN renal,1860 nM
same,GI50,HOP-62 NSCLC,2160 nM
same,TGI,HOP-62 NSCLC,6050 nM
same,GI50,COLO 205 colon,1170 nM
same,TGI,COLO 205 colon,2610 nM
same,GI50,786-0 renal,1850 nM
same,TGI,786-0 renal,5530 nM
same,GI50,EKVX NSCLC,1900 nM
same,TGI,EKVX NSCLC,4920 nM
same,GI50,U251 CNS,760 nM
same,TGI,U251 CNS,2070 nM
same,GI50,MDA-MB-435,1600 nM
same,TGI,MDA-MB-435,3080 nM
same,GI50,CAKI-1 renal,725 nM
same,TGI,CAKI-1 renal,2120 nM
same,GI50,UACC-257 melanoma,1700 nM
same,TGI,UACC-257 melanoma,4350 nM
same,GI50,UACC-62 melanoma,1230 nM
same,TGI,UACC-62 melanoma,2660 nM
same,GI50,SNB-19 CNS,1670 nM
same,TGI,SNB-19 CNS,4350 nM
same,GI50,RXF 393 renal,618 nM
same,TGI,RXF 393 renal,1950 nM
same,GI50,LOX IMVI melanoma,561 nM
same,TGI,LOX IMVI melanoma,2040 nM
same,GI50,PC-3 prostate,448 nM
same,TGI,PC-3 prostate,3230 nM
same,GI50,A549 NSCLC,2440 nM
same,TGI,A549 NSCLC,7660 nM
same,GI50,HCT-116 colon,371 nM
same,TGI,HCT-116 colon,1430 nM
same,GI50,BT-549 breast,365 nM
same,TGI,BT-549 breast,1410 nM
same,GI50,KM12 colon,1140 nM
same,TGI,KM12 colon,3530 nM
same,GI50,A498 renal,12600 nM
same,TGI,A498 renal,34900 nM
same,GI50,HOP-92 NSCLC,1190 nM
same,TGI,HOP-92 NSCLC,3240 nM
same,GI50,DU-145 prostate,3930 nM
same,TGI,DU-145 prostate,18300 nM
same,GI50,TK-10 renal,2280 nM
same,TGI,TK-10 renal,7430 nM
same,GI50,SNB-75 CNS,1350 nM
same,TGI,SNB-75 CNS,3380 nM
same,GI50,HS 578T breast,891 nM
same,TGI,HS 578T breast,3490 nM
same,GI50,NCI-H23 lung,1030 nM
same,TGI,NCI-H23 lung,3010 nM
same,GI50,MDA-MB-231 breast,1460 nM
same,TGI,MDA-MB-231 breast,3000 nM
same,GI50,SW-620 colon,400 nM
same,TGI,SW-620 colon,1790 nM
same,GI50,MCF7 breast,1470 nM
same,TGI,MCF7 breast,7500 nM
same,GI50,SK-MEL-28 melanoma,1080 nM
same,TGI,SK-MEL-28 melanoma,2570 nM
same,GI50,T-47D breast,599 nM
same,TGI,T-47D breast,2960 nM
same,GI50,CCRF-CEM leukemia,334 nM
same,TGI,CCRF-CEM leukemia,3530 nM
same,GI50,UO-31 renal,479 nM
same,TGI,UO-31 renal,1710 nM
same,GI50,SK-MEL-5 melanoma,1580 nM
same,TGI,SK-MEL-5 melanoma,2970 nM
same,GI50,OVCAR-3 ovarian,1430 nM
same,TGI,OVCAR-3 ovarian,2990 nM
same,GI50,NCI-H460 lung,2720 nM
same,TGI,NCI-H460 lung,8900 nM
same,GI50,NCI-H522 lung,346 nM
same,TGI,NCI-H522 lung,1350 nM
same,GI50,SF-295 CNS,1630 nM
same,TGI,SF-295 CNS,3410 nM
same,GI50,NCI-H226 lung,2590 nM
same,TGI,NCI-H226 lung,8600 nM
same,GI50,SN12C renal,923 nM
same,TGI,SN12C renal,2740 nM
same,GI50,OVCAR-8 ovarian,1380 nM
same,TGI,OVCAR-8 ovarian,3480 nM
same,GI50,SF-539 CNS,514 nM
same,TGI,SF-539 CNS,1650 nM
same,GI50,SK-OV-3 ovarian,2120 nM
same,TGI,SK-OV-3 ovarian,5920 nM
same,GI50,OVCAR-4 ovarian,1320 nM
same,TGI,OVCAR-4 ovarian,2860 nM
same,GI50,HCC-2998 colon,1670 nM
same,TGI,HCC-2998 colon,3350 nM
same,GI50,HL-60(TB) leukemia,1160 nM
same,TGI,HL-60(TB) leukemia,5390 nM
same,GI50,IGROV1 ovarian,1520 nM
same,TGI,IGROV1 ovarian,3070 nM
same,GI50,SF-268 CNS,1780 nM
same,TGI,SF-268 CNS,5370 nM
same,GI50,M14 melanoma,922 nM
same,TGI,M14 melanoma,2690 nM
same,GI50,RPMI-8226 leukemia,214 nM
same,TGI,RPMI-8226 leukemia,736 nM
same,GI50,K-562 leukemia,336 nM
same,TGI,K-562 leukemia,5220 nM

# Source: PubChem BioAssay (NCI)
